Experimental data taken from US10413517B2, “Composition and method for the treatment of neurological diseases and cerebral injury” (UNIVERSITY OF NOTRE DAME DU LAC, priority 2014, dated 2019).

Legend:
Assay type in all cases: in vivo, mouse
histone H3 and H4 = experiment: Histone acetylation in the brain (western blot); conditions: within an hour of i.p. administration; Vo 50 mg/Kg in PEG; HPBCD 2000 mg/Kg
Protocol: Npc1^nmf164 mice (6-7 weeks) were injected with either Vorinostat (50 mg/kg) or TCF through i.p route. Mice were sacrificed 1 hpi (1 hour post-injection) by asphyxiation using CO2. After homogenization of tissue, Histones were extracted using EpiQuik Total Histone extraction kit (Epigentek, NY, USA) as per manufacturer's instructions. Antibodies to Histone H3 (Lys14) and H4 (Lys5/8/12/16) from Millipore (CA, USA) were used in western blotting.

Purkinje cells = experiment: Calbindin immunofluorescence, Purkinje cell count in cerebellar sections; conditions: day 100, once weekly dosing
Protocol: Mice were sacrificed by asphyxiation using CO2. Harvested organs were immersed fixed in 10% neutral buffered formalin (˜4% formaldehyde) for 24 hrs at RT. The organs were subsequently stored in 70% alcohol at RT until transfer to paraffin. Paraffin-embedded tissue sections (4-5 μm) were dewaxed in xylene and alcohol. Calbindin antigen retrieval was done by pre-incubating deparaffinized samples with 0.05% proteinase K (Dako, Germany) in 50 mM Tris-HCl (pH 7.5) for 8 min at RT. CTSS and NPC1 was retrieved by boiling the sections in acidic condition for 30 min. Blocking was done either with 2% goat serum (for calbindin and NPC1) or 2% rabbit serum (for cathepsin S) for 30 min at RT. Sections were incubated with anti-calbindin (1:1000, C9848, Sigma), anti-cathepsin S (20 μg/ml, M-19, Santa Cruz Biotechnology), anti-NPC1 (custom made against human NPC1 protein, 20 μg/ml) overnight at 4° C. The appropriate FITC or TRITC-conjugated secondary IgG (MP Biomedicals, Solon, Ohio, USA) antibodies were used at 1:200 dilution. Sections were subsequently washed with PBS containing DAPI (0.5 μg/ml). Vectashield (Vector laboratories) was used as mounting medium and processed for fluorescence microscopy.
Tissue sections after IFA and filipin stained fibroblasts were visualized with 40× oil-immersion objective lens (NA 1.35). Filipin stain was visualized using DAPI filter. Digital image collection were performed using an Olympus IX inverted fluorescence microscope and a Photometrix cooled CCD camera (CH350/LCCD) driven by DeltaVision software from Applied Precision (Seattle, Wash., USA). DeltaVision software (softWoRx) was used to deconvolve these images. Images are single optical sections. Images were analyzed using ImageJ software (NIH, MD, USA).

Npc1^nmf164 mice = experiment: Neurobehavioral assessment (cumulative disease score 0-13); conditions: for cumulative neurobehavioral disease score: at 105-112 days, scale 0-13, Vo 50 mg/Kg, 2×HPBCD 4000 mg/Kg, TCF; for onset of individual symptoms (gait, grooming, limb tone, weight): weekly i.p. treatment
Protocol: A modified version of previously described method (Carroll et al., 2010) was used for assessing the neurobehavioral functions in mice. Six different parameters (FIG. 3A) associated with neurobehavioral functions of mice were assessed. Each mouse was assessed individually in an observation box (length, 31.8 cm, width, 19.8 cm and height, 10.5 cm) with a grid floor. A mouse was assessed for tremor (0 and 2), body position (0, 1 and 2), gait (0, 1 and 2), grooming (0, 1 and 2), limb tone (0, 1 and 2), and weight loss (0, 1, 2 and 3). For each symptom except weight, a mouse received a score 0 if no symptom was observed and score 2 when the most severe impairment in the function was seen. A mouse was given score 0 for weight loss below 5%, 1 for 5-10%, 2 for >10 and up to 20%, and 3 for >20 up to 30%. A cumulative score of 0-3 correlate with no neurobehavioral impairment and a score of 13 is the most impaired neurobehavioral function. Operator-independence scoring was also tested by two independent blinded operators on 6 NPC (Npc1^nmf164) and 4 healthy control (Npc1^+/nmf164) mice.

Row | Compound | acetylation of histone 3 or 4 (H3 or H4) in the brain (in words) (histone H3 and H4) | Purkinje cells in the cerebellum (in words) (Purkinje cells) | Purkinje cells in the cerebellum (in words) (Purkinje cells; listed as 2×HPBCD) | cumulative neurobehavioral disease score (Npc1^nmf164 mice) | onset of individual symptoms (gait, grooming, limb tone, weight) (Npc1^nmf164 mice) | Purkinje cells in the cerebellum (in words) (Purkinje cells; listed as Vo)
1 | CC(O)COC[C@H]1O[C@@H]2O[C@H]3[C@H](O)[C@@H](O)[C@@H](O[C@H]4[C@H](O)[C@@H](O)[C@@H](O[C@H]5[C@H](O)[C@@H](O)[C@@H](O[C@H]6[C@H](O)[C@@H](O)[C@@H](O[C@H]7[C@H](O)[C@@H](O)[C@@H](O[C@H]8[C@H](O)[C@@H](O)[C@@H](O[C@H]1[C@H](O)[C@H]2O)O[C@@H]8COCC(C)O)O[C@@H]7COCC(C)O)O[C@@H]6COCC(C)O)O[C@@H]5COCC(C)O)O[C@@H]4COCC(C)O)O[C@@H]3COCC(C)O (stereo partly drawn) [HPBCD, 2-Hydroxypropyl-β-cyclodextrin] | neither vehicle control (PEG+DMSO) nor HPBCD stimulated significant acetylation | Few lightly stained Purkinje cells | minor protection of Purkinje cell | 6-8 | Worsening in gait, grooming and weight were also delayed by 2×HPBCD, but less so than by the TCF | 
2 | O=C(CCCCCCC(=O)Nc1ccccc1)NO [vorinostat] | low levels of acetylation | no effect |  | 9-11 | no consistent, significant advantage in any symptomatic read out | Loss of Purkinje cells
